Reference: US6740772B1, “Prostaglandin derivatives” (Taisho Pharmaceutical Co., Ltd., priority 1999, dated 2004)

Test system: EBTr [NBL-4] cells derived from bovine embryonic trachea
Test: cAMP production promoting action in EBTr [NBL-4] cell derived from bovine embryonic trachea
Type: cell-based
Details: for EC50: concentration producing 50% of the cAMP amount obtained with 10 μM PGD2 (=100%), 15 minutes with test compound and 0.5 mM 3-isobutyl-1-methylxanthine; for cAMP production promoting action (in words): conclusion drawn from Table 1
Method: Experiment [Measurement of cAMP production promoting action in EBTr [NBL-4] cell derived from bovine embryonic trachea]
According to the method of Ito et al. in Br. J. Pharmacol., vol. 99, page 13-14 (1990), the following test was carried out.
That is, EBTr [NBL-4] cells derived from bovine embryonic trachea (produced by Dainippon Pharmaceutical Co.) were inoculated on 24-well plates (6×10^4 cells/well) (manufactured by Sumitomo Bakelite Co.), and cultured on a growth medium (MEM Earle's medium including 10% calf serum, 2mM glutamine and non-essential amino acids) for 48 hours, followed by cultivation on 0.5 ml of a growth medium including the test compound and 0.5 mM 3-isobutyl-1-methylxanthine) for 15 minutes. After the completion of the reaction, the cells were washed with a phosphate buffer (not including Ca++ and Mg++), 0.6 ml of 65% aqueous ethanol solution was added, followed by allowing to stand at 4° C. for an hour, and the resulting cAMP was extracted. After evaporation of the solvent by a centrifugal evaporator, the amount of cAMP was measured by using a cAMP EIA System (manufactured by Amersham Co.).
When an amount of cAMP obtained by adding PGD2 in a concentration of 10 μM was regarded as 100%, a concentration required to produce 50% of the amount of cAMP was measured as EC50.
(note) Compounds 19 and 97 are those prepared in the examples as described above. The test compounds were each used as a form of an ethanol solution, and compared with a vehicle-treated group as a control.

SMILES	EC50 [nM]	cAMP production promoting action (in words)
O=C(O)CCCCSCC1C(Cl)CC(O)C1C#CC(O)C1CCCCC1 (stereo not drawn) [Compound 19, 6-Thia-9-deoxy-9β-chloro-16,17,18,19,20-pentanor-15-cyclohexyl-13,14-didehydro-PGF1α]	17.3	strong cAMP production promoting action
O=C(O)COCCSCC1C(Cl)CC(O)C1C#CC(O)C1CCCCC1 (stereo not drawn) [Compound 97, 3-Oxa-6-thia-9β-chloro-13,14-didehydro-16,17,18,19,20-pentanor-15-cyclohexyl-9-deoxy-PGF1α]	5.13	strong cAMP production promoting action
CCCCC[C@H](O)/C=C/[C@H]1C(=O)C[C@H](O)[C@@H]1C/C=C\CCCC(=O)O [PGD2, reference compound]	124	–
